The source of these data is patent US8883782B2, “Spiro-tetracyclic ring compounds as beta-secretase modulators and methods of use” (Amgen Inc., priority 2010, dated 2014).

Experiment [1] deals with Beta Secretase enzyme (BACE) (Homo sapiens, UniProt P56817). Description: In vitro enzymatic BACE FRET (fluorescence resonance energy transfer) assay. The experiment is classed as biochemical. Particulars: average IC50, enzyme assay; read-out: BACE 1 FRET assay. In outline: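 Fluorescence read after Tris quench to neutral pH. Reaction: 50 nM fluorophore/quencher peptide substrate, 1 h, in 0.05 M acetate pH 4.2, 10% DMSO final, 100 uM genapol.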

Experiment [2] concerns Aβ40 in conditioned medium of cells stably expressing Amyloid Precursor Protein (APP). Description: In vitro BACE cell-based assay (Aβ40 in conditioned medium, sandwich ELISA). To be noted: read-out: HEK cell assay. The method, boiled down: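 Quantification relied on pAb40/6E10 sandwich ELISA with Europium fluorescence counts, and IC50 was fitted versus concentration.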
For orientation: In an ELISA, binding on a coated surface is turned into a signal by an enzyme label.

Setting [3] is: Homo sapiens, HEK293, average IC50.
The mark [4] stands for this setting: Homo sapiens, HEK293, average IC50, HEK cells.

Where two headings read alike, the source gives them in different places.

Sequence of Beta Secretase enzyme (BACE) (P56817 46-501, species assumed): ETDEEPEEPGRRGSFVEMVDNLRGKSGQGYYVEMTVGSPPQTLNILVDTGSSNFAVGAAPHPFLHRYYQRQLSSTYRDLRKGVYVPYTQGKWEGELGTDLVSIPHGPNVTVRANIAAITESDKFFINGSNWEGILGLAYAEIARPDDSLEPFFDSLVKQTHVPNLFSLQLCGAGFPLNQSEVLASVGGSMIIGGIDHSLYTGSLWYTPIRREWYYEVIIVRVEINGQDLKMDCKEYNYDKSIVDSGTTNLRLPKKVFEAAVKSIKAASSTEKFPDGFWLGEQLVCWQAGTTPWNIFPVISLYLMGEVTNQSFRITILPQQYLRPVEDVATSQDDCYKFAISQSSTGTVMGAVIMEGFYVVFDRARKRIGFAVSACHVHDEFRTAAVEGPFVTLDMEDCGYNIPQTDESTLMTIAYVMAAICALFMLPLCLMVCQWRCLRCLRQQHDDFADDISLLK

On to `CC#Cc1cncc(-c2ccc3c(c2)C2(COC(N)=N2)c2cc(C4CCOCC4)nc(F)c2O3)c1` (stereo not shown) [Example 750, 1-fluoro-7-(5-(1-propyn-1-yl)-3-pyridinyl)-3-(tetrahydro-2H-pyran-4-yl)spiro[chromeno[2,3-c]pyridine-5,4′-[1,3]oxazol]-2′-amine], for which the IC50 in experiment [1] worked out at 0.7 nM; in experiment [2] (setting [3]), 4 nM.
In the case of “(4S)-2′-(2-chloro-4-pyrimidinyl)-4′-fluoro-7′-(2-fluoro-3-pyridinyl)spiro[1,3-oxazole-4,9′-xanthen]-2-amine [Example 221]”, the values for the IC50 in experiment [1] and in experiment [2] (average IC50) were 0.7 nM and 129 nM, respectively.
As to `N#Cc1cccc(-c2ccc3c(c2)[C@@]2(COC(N)=N2)c2cc(N4CCC(F)(F)C4)nc(F)c2O3)c1` [Example 920, 3-((5S)-2′-amino-3-(3,3-difluoro-1-pyrrolidinyl)-1-fluorospiro[chromeno[2,3-c]pyridine-5,4′-[1,3]oxazol]-7-yl)benzonitrile], the IC50 in experiment [1] worked out at 0.2 nM; in experiment [2] (setting [4]), 12 nM.
The like results for `C1=C(c2cnc3c(c2)[C@]2(COC(NCc4ccccc4)=N2)c2cc(OCc4ccccc4)ccc2O3)CCOC1` [Example 968, (5S)-N-benzyl-7-(benzyloxy)-3-(3,6-dihydro-2H-pyran-4-yl)spiro[chromeno[2,3-b]pyridine-5,4′-[1,3]oxazol]-2′-amine] were, in that order, 1260 nM and at least 10000 nM.
`Cn1cc(-c2cccc(-c3ccc4c(c3)[C@@]3(COC(N)=N3)c3cc(C5=CCOCC5)ncc3O4)c2)cn1` [Example 243, (5S)-3-(3,6-dihydro-2H-pyran-4-yl)-7-(3-(1-methyl-1H-pyrazol-4-yl)phenyl)spiro[chromeno[2,3-c]pyridine-5,4′-[1,3]oxazol]-2′-amine]: the IC50 in experiment [1] stood at 19.5 nM; in experiment [2] (setting [3]) it was 287 nM.
Regarding `COc1cncc(-c2ccc3c(c2)[C@@]2(COC(N)=N2)c2cc(OCC(C)(C)C#N)cc(F)c2O3)c1` [Example 264, 3-(((4S)-2-amino-4′-fluoro-7′-(5-methoxy-3-pyridinyl)spiro[1,3-oxazole-4,9′-xanthen]-2′-yl)oxy)-2,2-dimethylpropanenitrile], the results for the IC50 in experiment [1] and in experiment [2] (setting [3]) were 1 nM and 8.1 nM, respectively.
For `CC(C)(CF)COc1cc(F)c2c(c1)[C@]1(CSC(N)=N1)c1cc(-c3cccnc3F)ccc1O2` [Example 1081, (4S)-4′-fluoro-2′-(3-fluoro-2,2-dimethylpropoxy)-7′-(2-fluoro-3-pyridinyl)spiro[1,3-thiazole-4,9′-xanthen]-2-amine], in that order: 214 nM and 899 nM.
Take `NC1=NC2(CS1)c1cc(I)ccc1Oc1ncc(Br)cc12` (stereo not shown) [Example 522, 3-bromo-7-iodospiro[chromeno[2,3-b]pyridine-5,4′-[1,3]thiazol]-2′-amine]: the results for the IC50 in experiment [1] and in experiment [2] (setting [4]) were 4500 nM and 10000 nM, respectively.
For `NC1=N[C@@]2(CO1)c1cc(-c3cccnc3F)ccc1Oc1cnc(-c3cncnc3)cc12` [Example 571, (5S)-7-(2-fluoro-3-pyridinyl)-3-(5-pyrimidinyl)spiro[chromeno[2,3-c]pyridine-5,4′-[1,3]oxazol]-2′-amine], the IC50 in experiment [1] was 6.6 nM; in experiment [2] (setting [4]), 110 nM.
Consider `CC1(C#Cc2cnc3c(c2)[C@]2(COC(N)=N2)c2cc(-c4ccc(F)nc4)ccc2O3)COC1` [Example 167, (5S)-7-(6-fluoro-3-pyridinyl)-3-((3-methyl-3-oxetanyl)ethynyl)spiro[chromeno[2,3-b]pyridine-5,4′-[1,3]oxazol]-2′-amine], for which the IC50 in experiment [1] came to 2.6 nM; in experiment [2] (setting [3]), 13.9 nM.
For `NC1=N[C@@]2(CO1)c1cc(-c3cccnc3F)ccc1Oc1nc(F)c(I)cc12` [Example 898, (5S)-2-fluoro-7-(2-fluoro-3-pyridinyl)-3-iodospiro[chromeno[2,3-b]pyridine-5,4′-[1,3]oxazol]-2′-amine], the IC50 is 10600 nM in experiment [1] and at least 10000 nM in experiment [2] (setting [4]).
